This note sets out measurements from patent US6407124B1, “Carbon substituted aminothiazole inhibitors of cyclin dependent kinases” (Bristol-Myers Squibb Company, priority 1998, dated 2002).

For `CCOC(=O)/C=C/c1cnc(NC(C)=O)s1` [Example 1, Ethyl 3-((E)-2-acetamido-thiazol-5-yl)-acrylate], the melting point (as a rule, the temperature, or range, at which the solid turns liquid) lay in the range of 239 to 240 °C.
The result for `CC(=O)Nc1ncc(/C=C/c2ncc(C(C)(C)C)o2)s1` [Example 2, N-[(E)-5-(2-(5-t-butyl-oxazol-2-yl)-vinyl)-thiazol-2-yl]-acetamide] reads 275 °C.
